Test [1] has as its target T1, ZIKV NS2B-NS3^pro (Zika virus, UniProt A0A024B7W1). The test can be described thus: FRET-based inhibition assay of ZIKV NS2B-NS3pro protease. The format is biochemical. The note with it: for inhibition at 100 µM: pH 7, 100 µM inhibitor.
Test [2] deals with T1, ZIKV NS2B-NS3^pro. The test can be described thus: Inhibitor kinetic study. Type of test: biochemical.
Where [3] appears, read: 26 μM FRET substrate, 8.7 μg enzyme, 50 mM Tris/HCl pH 7.0, 25 °C, 11 min.

As usually defined, the IC50 is the concentration needed to halve the response being measured. Lower therefore signals greater potency in that assay. For orientation: inhibition means the share of the control response that was lost under treatment. As usually defined, the Ki is a dissociation constant, usually derived from enzyme kinetics or from competition with a known ligand. A high value points to a looser hold on the target.

Structures are written as SMILES.

T1 sequence (A0A024B7W1 1421-1469): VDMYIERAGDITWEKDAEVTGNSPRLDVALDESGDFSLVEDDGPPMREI
T1 sequence (A0A024B7W1 1503-1688): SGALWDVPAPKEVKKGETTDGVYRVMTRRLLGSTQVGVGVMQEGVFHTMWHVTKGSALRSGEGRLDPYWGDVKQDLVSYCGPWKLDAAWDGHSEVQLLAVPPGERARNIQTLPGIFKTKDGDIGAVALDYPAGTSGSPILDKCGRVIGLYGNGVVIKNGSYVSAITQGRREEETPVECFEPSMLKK

As to `O=c1c(O[C@@H]2O[C@H](CO)[C@@H](O)[C@H](O)[C@H]2O)c(-c2ccc(O)cc2)oc2cc(O)cc(O)c12` [Astragalin], 112 ± 5.5 µM corresponded to half-maximal inhibition at ZIKV NS2B-NS3^pro [1] (IC50). At ZIKV NS2B-NS3^pro [1] (setting [3]), this compound showed an inhibition at 100 µM of more than 40%.

`O=C(O[C@@H]1Cc2c(O)cc(O)cc2O[C@@H]1c1ccc(O)c(O)c1)c1cc(O)c(O)c(O)c1` [Epicatechin gallate] yielded an inhibition at 100 µM at ZIKV NS2B-NS3^pro [1] (setting [3]) of more than 40%.

For the compound `O=C(O[C@@H]1Cc2c(O)cc(O)cc2O[C@H]1c1cc(O)c(O)c(O)c1)c1cc(O)c(O)c(O)c1` [Gallocatechin gallate], on ZIKV NS2B-NS3^pro [1], the IC50 turned out to be 99 ± 1.8 µM. This compound gave an inhibition at 100 µM on ZIKV NS2B-NS3^pro [1] (setting [3]) of more than 40%.

The compound `O=c1cc(-c2ccc(O)c(O)c2)oc2cc(O)cc(O)c12` [Luteolin] returned an IC50 on ZIKV NS2B-NS3^pro [1] of 53 ± 1.3 µM. This compound also registered an inhibition at 100 µM against ZIKV NS2B-NS3^pro [1] (setting [3]) of more than 40%. Further, the “inhibition activity compared to chrysin” value at ZIKV NS2B-NS3^pro [1] (ratio of inhibition at 100 µM) was found to be 2.8 times.

Take `O=c1c(O)c(-c2cc(O)c(O)c(O)c2)oc2cc(O)cc(O)c12` [Myricetin]: the “Inhibition (%)” value at ZIKV NS2B-NS3^pro [1] (100 µM inhibitor, 26 μM FRET substrate, 8.7 μg enzyme, 50 mM Tris/HCl pH 7.0, 25 °C, 11 min) is “more than 40%”. Besides, the Ki on ZIKV NS2B-NS3^pro [2] amounted to 8.9 ± 1.9 µM. The inhibition type result against ZIKV NS2B-NS3^pro [2] (Lineweaver–Burk and Dixon plots, inhibitor 0–50 µM, substrate 10–50 µM) is listed as “mixed type”.

For the compound `C[C@@H]1O[C@@H](O[C@H]2[C@H](Oc3cc(O)c4c(c3)O[C@H](c3ccc(O)cc3)CC4=O)O[C@H](CO)[C@@H](O)[C@@H]2O)[C@H](O)[C@H](O)[C@H]1O` [Naringin], the “inhibitory activity against ZIKV NS2B-NS3^pro (in words)” value on ZIKV NS2B-NS3^pro [1] (100 µM inhibitor) was “weak inhibitory activities”.

At ZIKV NS2B-NS3^pro [1] (setting [3]), `C[C@@H]1O[C@@H](OC[C@H]2O[C@@H](Oc3c(-c4ccc(O)c(O)c4)oc4cc(O)cc(O)c4c3=O)[C@H](O)[C@@H](O)[C@@H]2O)[C@H](O)[C@H](O)[C@H]1O` [Rutin] showed an inhibition at 100 µM of more than 40%.

Source of the values: publication PMC7088272 (Biotechnology Letters, 2016).
